This passage reports IC50 results from ChEMBL document CHEMBL1123003, “Synthesis and interaction of 5-(substituted-phenyl)-3-methyl-6,7-dihydropyrazolo[4,3-e] [1,4]diazepin-8(7H)-ones with benzodiazepine receptors in rat cerebral cortex” (J Med Chem, 1985).

The target in this test is GABA-A receptor; anion channel. Description: Displacement of [3H]flunitrazepam from GABA-A benzodiazepine receptor in synaptic membranes of rat cerebral cortex. Type of test: cell membranes. (Loss of bound radioactivity is the signal in a displacement assay; it reports binding, not function.)

As usually defined, the pIC50 is −log10 of the IC50, conventionally taken in molar units.

pIC50: −log10 of the molar value.

As to `Cc1n[nH]c2c1N=C(c1ccc(Cl)cc1)CNC2=O`, the negative logarithm of the IC50 (pIC50) was 5.00.

`COc1ccc(C2=Nc3c(C)n[nH]c3C(=O)NC2)cc1` showed a pIC50 of 4.33.

`Cc1n[nH]c2c1N=C(c1ccccc1)CNC2=O` gave a pIC50 of 5.36.

Turning to `CNC1=Nc2ccc(Cl)cc2C(c2ccccc2)=[N+]([O-])C1` [CHLORDIAZEPOXIDE], the negative-log IC50 (pIC50) was 6.04.

As to `Cc1n[nH]c2c1N=C(c1ccc(-c3ccccc3)cc1)CNC2=O`, the negative-log IC50 (pIC50) was < 4.00.

`CCn1nc(C)c2c1C(c1ccccc1)=NCC(=O)N2` [RIPAZEPAM]: the negative-log IC50 (pIC50) was 6.17.

The compound `Cc1n[nH]c2c1N=C(c1ccc(Br)cc1)CNC2=O` had a pIC50 of 4.65.

`Cc1n[nH]c2c1N=C(c1ccc([N+](=O)[O-])cc1)CNC2=O` gave a negative-log IC50 (pIC50) of 4.52.
